Measurements reported in ChEMBL document CHEMBL5465560, “Selectivity Literature for EUbOPEN Chemogenomic Library” (2024).
pIC50: −log10 of the molar value.

Experiments:
[1] = target: Mitogen-activated protein kinase kinase kinase 14 (Homo sapiens) (UniProt Q99558); experiment: Selectivity interaction (Ambit KINOMEscan and KiNATiv profiling in Jurkat cells) EUB0000090b MAP3K14; assay type: cell-based; details: at 1 µM
[2] = target: Tyrosine-protein kinase ABL2 (Homo sapiens, UniProt P42684); experiment: Selectivity interaction (ActivX KiNativ screen (kinase selectivity in THP-1 cell lysates)) EUB0000639a ABL2; assay type: subcellular; details: lysate
[3] = target: Tyrosine-protein kinase SYK (Homo sapiens, UniProt P43405); experiment: Selectivity interaction (ActivX KiNativ screen (kinase selectivity in THP-1 cell lysates)) EUB0000639a SYK; assay type: subcellular; details: lysate, at 0.2 µM
B2 bradykinin receptor = B2 bradykinin receptor (Homo sapiens, UniProt P30411); experiment: Selectivity interaction (Bradykinin 2 receptor binding assay, human recombinant ) EUB0000877a BDKRB2
[4] = target: Serine/threonine-protein kinase 24 (Homo sapiens) (UniProt Q9Y6E0); experiment: Selectivity interaction (KinomeScan (DiscoverX)) EUB0000695a STK24; details: at 100 nM
[5] = target: T1, 3-phosphoinositide-dependent protein kinase 1 (Homo sapiens) (UniProt O15530); details: at 10 µM
T1 sequence (whole entry): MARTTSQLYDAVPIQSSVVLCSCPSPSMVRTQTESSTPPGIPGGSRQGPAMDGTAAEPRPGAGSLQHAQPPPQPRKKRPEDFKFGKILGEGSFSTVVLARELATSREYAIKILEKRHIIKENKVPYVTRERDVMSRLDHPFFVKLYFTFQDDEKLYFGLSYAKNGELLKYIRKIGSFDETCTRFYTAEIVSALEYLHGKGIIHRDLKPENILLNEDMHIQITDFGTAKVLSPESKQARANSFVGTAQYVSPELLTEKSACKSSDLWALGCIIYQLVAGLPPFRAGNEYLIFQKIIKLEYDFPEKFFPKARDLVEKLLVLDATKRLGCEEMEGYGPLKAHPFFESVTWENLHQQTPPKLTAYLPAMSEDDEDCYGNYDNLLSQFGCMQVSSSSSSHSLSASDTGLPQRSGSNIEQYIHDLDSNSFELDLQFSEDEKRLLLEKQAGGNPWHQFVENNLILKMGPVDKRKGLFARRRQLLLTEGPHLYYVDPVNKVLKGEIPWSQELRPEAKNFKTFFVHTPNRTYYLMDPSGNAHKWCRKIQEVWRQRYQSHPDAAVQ

[6] = target: Activin receptor type-1-like (Homo sapiens) (UniProt P37023); experiment: Selectivity interaction (ProQinase) EUB0000171b ACVRL1
[7] = target: T2, MAP kinase-activated protein kinase 5 (Homo sapiens) (UniProt Q8IW41); experiment: Selectivity interaction (KinomeScan (DiscoverX)) EUB0000092b MAPKAPK5; details: at 10 µM
T2 sequence (whole entry): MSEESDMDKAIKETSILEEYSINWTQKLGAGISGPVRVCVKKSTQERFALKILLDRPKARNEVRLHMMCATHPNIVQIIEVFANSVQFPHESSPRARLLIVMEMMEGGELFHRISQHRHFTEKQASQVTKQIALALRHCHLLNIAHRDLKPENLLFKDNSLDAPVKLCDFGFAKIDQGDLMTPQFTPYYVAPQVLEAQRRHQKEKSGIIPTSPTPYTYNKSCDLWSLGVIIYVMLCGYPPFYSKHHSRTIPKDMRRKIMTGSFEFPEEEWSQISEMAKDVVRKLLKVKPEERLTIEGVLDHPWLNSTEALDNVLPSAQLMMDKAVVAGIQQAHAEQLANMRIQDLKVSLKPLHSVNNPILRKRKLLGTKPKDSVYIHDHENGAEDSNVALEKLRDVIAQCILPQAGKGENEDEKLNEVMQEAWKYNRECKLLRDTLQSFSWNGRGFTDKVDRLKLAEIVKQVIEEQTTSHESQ

[8] = target: Dual specificity protein kinase CLK3 (Homo sapiens, UniProt P49761); experiment: Selectivity interaction (KinomeScan (DiscoverX)) EUB0001619a CLK3; details: at 1 µM
[9] = target: Calcium/calmodulin-dependent protein kinase type 1 (Homo sapiens) (UniProt Q14012); experiment: Selectivity interaction (KinomeScan (DiscoverX)) EUB0000607a CAMK1; details: at 10 µM
[10] = target: T3, Serine/threonine-protein kinase DCLK3 (Homo sapiens) (UniProt Q9C098); experiment: Selectivity interaction (KinomeScan (DiscoverX)) EUB0000607a DCLK3; details: at 10 µM
T3 sequence (whole entry): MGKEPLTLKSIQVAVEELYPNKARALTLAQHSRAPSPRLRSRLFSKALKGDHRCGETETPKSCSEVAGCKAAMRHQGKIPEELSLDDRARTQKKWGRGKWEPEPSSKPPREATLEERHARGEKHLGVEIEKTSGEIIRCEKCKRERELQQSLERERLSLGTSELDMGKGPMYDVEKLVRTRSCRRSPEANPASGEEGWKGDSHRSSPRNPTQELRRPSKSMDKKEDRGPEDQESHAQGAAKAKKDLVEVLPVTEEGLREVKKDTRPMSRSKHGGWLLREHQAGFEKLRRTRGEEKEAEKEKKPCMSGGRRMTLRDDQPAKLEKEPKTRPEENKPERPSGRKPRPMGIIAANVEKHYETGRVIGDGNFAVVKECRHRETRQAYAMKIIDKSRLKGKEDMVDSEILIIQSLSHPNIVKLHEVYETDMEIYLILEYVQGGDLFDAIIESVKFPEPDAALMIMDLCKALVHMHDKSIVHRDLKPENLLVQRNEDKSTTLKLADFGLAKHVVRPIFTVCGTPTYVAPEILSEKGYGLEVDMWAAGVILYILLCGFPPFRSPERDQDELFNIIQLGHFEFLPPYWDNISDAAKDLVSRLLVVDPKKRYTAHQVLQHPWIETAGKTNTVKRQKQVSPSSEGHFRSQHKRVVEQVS

[11] = target: Serine/threonine-protein kinase MRCK gamma (Homo sapiens) (UniProt Q6DT37); experiment: Selectivity interaction (KinomeScan (DiscoverX)) EUB0000666a CDC42BPG; details: at 10 µM
Serine/threonine-protein kinase MRCK gamma (Homo sapiens), sequence (Q6DT37 whole entry): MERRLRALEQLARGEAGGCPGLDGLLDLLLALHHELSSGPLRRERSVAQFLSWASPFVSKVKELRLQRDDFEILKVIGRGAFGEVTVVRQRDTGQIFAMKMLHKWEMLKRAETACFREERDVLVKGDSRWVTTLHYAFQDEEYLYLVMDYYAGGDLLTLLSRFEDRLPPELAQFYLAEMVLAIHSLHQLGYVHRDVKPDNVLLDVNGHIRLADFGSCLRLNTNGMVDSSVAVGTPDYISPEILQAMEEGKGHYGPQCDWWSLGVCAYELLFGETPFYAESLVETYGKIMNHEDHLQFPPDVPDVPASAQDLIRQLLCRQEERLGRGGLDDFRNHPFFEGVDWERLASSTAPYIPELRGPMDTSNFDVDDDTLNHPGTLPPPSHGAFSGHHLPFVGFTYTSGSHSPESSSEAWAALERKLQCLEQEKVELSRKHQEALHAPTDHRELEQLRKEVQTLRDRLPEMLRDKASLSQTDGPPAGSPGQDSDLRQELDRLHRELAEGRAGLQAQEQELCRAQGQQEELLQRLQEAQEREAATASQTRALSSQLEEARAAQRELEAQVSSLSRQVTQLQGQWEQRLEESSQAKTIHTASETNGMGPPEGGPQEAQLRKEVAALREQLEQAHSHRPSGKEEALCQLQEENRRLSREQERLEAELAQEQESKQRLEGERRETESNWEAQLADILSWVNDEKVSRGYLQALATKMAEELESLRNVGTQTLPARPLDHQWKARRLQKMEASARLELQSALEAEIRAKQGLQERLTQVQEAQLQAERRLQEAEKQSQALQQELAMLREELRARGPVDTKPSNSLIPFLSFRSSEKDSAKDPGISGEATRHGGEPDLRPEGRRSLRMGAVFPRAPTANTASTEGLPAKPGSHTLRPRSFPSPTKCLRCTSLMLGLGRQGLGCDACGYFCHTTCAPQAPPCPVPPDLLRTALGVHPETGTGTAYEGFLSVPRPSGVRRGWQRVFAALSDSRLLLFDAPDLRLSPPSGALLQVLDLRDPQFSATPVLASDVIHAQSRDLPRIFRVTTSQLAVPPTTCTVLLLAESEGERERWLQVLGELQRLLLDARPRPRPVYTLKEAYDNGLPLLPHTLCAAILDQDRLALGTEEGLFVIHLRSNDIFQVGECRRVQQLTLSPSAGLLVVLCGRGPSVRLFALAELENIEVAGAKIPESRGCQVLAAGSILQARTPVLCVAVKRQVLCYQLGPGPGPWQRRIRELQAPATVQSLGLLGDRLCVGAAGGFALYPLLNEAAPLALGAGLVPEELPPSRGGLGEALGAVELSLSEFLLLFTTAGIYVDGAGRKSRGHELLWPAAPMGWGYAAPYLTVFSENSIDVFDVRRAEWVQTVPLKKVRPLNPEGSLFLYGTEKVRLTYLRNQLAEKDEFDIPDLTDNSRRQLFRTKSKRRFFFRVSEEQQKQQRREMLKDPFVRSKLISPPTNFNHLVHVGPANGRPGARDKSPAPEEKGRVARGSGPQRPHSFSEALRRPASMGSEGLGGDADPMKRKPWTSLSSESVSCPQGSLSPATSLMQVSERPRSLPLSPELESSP

Tyrosine-protein kinase ABL2, sequence (P42684 whole entry): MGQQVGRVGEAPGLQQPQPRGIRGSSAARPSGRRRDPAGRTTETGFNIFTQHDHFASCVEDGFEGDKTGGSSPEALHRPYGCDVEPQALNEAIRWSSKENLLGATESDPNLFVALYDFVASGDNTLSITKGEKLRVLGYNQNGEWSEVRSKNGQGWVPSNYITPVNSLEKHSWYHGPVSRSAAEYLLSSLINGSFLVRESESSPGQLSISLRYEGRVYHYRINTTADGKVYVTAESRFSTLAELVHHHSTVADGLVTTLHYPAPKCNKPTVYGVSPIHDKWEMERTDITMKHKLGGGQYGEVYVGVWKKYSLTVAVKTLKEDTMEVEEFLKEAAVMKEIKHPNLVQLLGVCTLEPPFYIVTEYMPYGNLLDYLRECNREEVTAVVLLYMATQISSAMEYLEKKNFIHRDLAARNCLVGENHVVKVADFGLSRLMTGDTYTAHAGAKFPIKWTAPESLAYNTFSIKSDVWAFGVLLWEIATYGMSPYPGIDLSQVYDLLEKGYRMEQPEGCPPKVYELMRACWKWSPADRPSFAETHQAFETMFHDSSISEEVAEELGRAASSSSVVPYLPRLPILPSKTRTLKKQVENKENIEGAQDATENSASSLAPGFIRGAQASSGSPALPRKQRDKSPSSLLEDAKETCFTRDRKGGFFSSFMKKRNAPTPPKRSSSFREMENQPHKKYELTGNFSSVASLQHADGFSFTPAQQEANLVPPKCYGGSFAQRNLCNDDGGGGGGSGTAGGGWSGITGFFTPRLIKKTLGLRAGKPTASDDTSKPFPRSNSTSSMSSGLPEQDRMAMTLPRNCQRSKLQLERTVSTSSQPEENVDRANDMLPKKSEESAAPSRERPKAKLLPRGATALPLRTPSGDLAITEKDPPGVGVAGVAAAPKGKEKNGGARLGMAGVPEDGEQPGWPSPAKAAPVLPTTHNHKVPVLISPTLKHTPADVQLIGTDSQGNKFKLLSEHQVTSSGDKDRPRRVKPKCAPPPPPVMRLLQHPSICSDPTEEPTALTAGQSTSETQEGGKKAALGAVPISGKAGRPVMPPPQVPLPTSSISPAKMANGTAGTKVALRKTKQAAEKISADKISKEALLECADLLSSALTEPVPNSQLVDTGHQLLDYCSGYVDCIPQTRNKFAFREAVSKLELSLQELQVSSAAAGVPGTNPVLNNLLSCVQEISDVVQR
Activin receptor type-1-like (Homo sapiens), sequence (P37023 whole entry): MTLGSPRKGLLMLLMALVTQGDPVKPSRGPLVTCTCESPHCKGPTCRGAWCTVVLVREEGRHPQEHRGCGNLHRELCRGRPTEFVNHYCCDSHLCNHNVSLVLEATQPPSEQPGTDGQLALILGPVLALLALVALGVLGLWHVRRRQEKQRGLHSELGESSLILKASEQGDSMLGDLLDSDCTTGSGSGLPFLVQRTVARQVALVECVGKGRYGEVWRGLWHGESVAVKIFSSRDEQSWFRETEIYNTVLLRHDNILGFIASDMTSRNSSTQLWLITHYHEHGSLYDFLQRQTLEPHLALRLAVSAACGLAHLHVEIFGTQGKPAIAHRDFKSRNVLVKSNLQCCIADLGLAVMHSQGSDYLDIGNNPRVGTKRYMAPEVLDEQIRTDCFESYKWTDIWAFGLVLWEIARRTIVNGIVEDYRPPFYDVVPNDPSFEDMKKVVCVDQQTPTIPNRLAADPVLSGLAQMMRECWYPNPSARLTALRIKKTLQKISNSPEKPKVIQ
Calcium/calmodulin-dependent protein kinase type 1 (Homo sapiens), sequence (Q14012 whole entry, looked up): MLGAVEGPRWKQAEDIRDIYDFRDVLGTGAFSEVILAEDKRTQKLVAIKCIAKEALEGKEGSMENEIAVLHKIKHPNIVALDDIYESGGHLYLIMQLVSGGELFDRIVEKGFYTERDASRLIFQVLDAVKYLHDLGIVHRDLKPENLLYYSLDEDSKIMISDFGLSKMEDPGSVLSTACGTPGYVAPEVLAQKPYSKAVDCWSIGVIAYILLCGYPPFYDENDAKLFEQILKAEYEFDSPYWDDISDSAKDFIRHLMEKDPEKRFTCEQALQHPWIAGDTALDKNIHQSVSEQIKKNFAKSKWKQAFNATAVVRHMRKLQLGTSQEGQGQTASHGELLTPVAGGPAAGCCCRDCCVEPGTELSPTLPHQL
Dual specificity protein kinase CLK3, sequence (P49761 whole entry, looked up): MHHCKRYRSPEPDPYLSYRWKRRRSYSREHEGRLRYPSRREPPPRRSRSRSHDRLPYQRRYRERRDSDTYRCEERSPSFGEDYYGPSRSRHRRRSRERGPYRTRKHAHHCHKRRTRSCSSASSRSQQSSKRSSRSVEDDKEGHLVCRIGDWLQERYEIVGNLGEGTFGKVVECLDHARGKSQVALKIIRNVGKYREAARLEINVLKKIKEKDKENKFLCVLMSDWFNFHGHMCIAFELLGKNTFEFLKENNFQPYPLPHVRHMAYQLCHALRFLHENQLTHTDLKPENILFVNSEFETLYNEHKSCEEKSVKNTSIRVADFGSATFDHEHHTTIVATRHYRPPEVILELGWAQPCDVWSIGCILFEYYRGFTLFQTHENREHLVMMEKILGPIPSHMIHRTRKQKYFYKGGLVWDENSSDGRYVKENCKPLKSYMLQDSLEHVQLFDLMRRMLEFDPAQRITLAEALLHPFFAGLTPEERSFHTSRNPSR
Mitogen-activated protein kinase kinase kinase 14 (Homo sapiens), sequence (Q99558 whole entry, looked up): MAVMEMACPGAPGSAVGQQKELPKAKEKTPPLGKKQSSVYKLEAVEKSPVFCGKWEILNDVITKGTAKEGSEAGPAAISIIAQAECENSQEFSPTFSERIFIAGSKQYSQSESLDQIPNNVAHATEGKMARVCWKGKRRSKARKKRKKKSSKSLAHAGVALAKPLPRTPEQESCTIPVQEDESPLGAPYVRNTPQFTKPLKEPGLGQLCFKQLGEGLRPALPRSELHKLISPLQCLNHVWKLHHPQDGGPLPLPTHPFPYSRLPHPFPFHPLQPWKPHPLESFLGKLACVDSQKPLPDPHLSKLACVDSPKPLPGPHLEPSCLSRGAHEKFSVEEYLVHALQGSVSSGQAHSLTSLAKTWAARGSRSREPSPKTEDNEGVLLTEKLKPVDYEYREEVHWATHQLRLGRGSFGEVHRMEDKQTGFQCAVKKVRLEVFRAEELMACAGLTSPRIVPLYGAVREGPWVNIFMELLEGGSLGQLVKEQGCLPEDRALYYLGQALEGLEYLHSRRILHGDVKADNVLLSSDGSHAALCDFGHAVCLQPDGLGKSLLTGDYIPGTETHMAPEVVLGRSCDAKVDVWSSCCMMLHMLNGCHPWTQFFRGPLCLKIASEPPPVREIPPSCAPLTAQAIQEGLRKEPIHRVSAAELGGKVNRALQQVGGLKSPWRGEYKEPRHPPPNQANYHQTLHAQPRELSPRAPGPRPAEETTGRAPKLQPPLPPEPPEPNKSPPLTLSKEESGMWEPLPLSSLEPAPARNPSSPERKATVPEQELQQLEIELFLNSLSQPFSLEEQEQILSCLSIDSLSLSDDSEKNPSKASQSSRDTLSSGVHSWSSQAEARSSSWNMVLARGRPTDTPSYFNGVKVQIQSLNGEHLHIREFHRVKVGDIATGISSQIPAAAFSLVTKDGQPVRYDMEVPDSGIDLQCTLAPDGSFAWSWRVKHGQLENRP

Compound: CN(C)C/C=C/C(=O)Nc1ccc(C(=O)N2CCCC(Nc3ncc(Cl)c(-c4c[nH]c5ccccc45)n3)C2)cc1 (configuration not stated)
- % of control [1]: 100%

Compound: CC[C@@H]1[C@H](F)C(=O)N[C@@H]1COc1nccc2cc(C(N)=O)c(OC)cc12 [ZIMLOVISERTIB]
- % of inhibition ([2]; at 0.01 µM): 52%
- % of inhibition ([2]; at 0.04 µM): -16%
- % of inhibition ([2]; at 0.2 µM): -25.4%
- % of inhibition ([2]; at 1 µM): -5.3%
- % of inhibition ([2]; at 5 µM): -19.6%
- % of inhibition [3]: 9.3%

Compound: CCC(=O)N1CC[C@H](Nc2ncnc3c2CN(c2cnc(OC)c(C(F)(F)F)c2)CC3)C1 [LENIOLISIB]
- pIC50 (B2 bradykinin receptor): < 4.52

Compound: Cc1cc(F)c(C(=O)Nc2cccc(-c3nncn3C(C)C)n2)cc1-n1cnc(C2CC2)c1
- % of control [4]: 100%

Compound: CCN(CC)CCCCNc1ncc2cc(-c3cc(OC)cc(OC)c3)c(NC(=O)NC(C)(C)C)nc2n1
- % of control [5]: 100%

Compound: C=CC(=O)Nc1cccc(C(=O)Nc2ccc(Nc3cc(-c4[nH]c(SC)nc4C)ccn3)cc2)c1
- % of control ([6]; at 1 µM): 74%
- % of control ([6]; at 5 µM): 52%

Compound: CCC(=O)N1CCN(c2ccc(-n3c(=O)ccc4cnc5ccc(-c6cnc7ccccc7c6)cc5c43)cc2C(F)(F)F)CC1
- % of control [7]: 100%

Compound: N#Cc1cccc(-c2c[nH]c3ncnc(N4CCOCC4)c23)c1
- % of control [8]: 78%

Compound: CNC(=O)Nc1ccc(-c2nc(N3CC4CCC(C3)O4)c3cnn(C4CCC5(CC4)OCCO5)c3n2)cc1
- % of control [9]: 93%
- % of control [10]: 100%

Compound: O=C(NOC[C@H](O)CO)c1ccc(F)c(F)c1Nc1ccc(I)cc1F
- % of control [11]: 85%
